Values after ≈ are worked out from the molar mass of the structure shown.
Legend:
dermatophytes = conditions: Lloydia, 39(4), 218-222, (1976); cited from earlier work
L929 cells = test: Cytotoxicity in L929 cell lines; type: cell-based; set-up: Cytotoxicity in L929 cell lines: unit not given here
TNF-α = TNF-α production by LPS in human peripheral blood mononuclear cells (hPBMC), ELISA; type: cell-based
Protocol: Assay for Screening in Human Peripheral Blood Mononuclear Cells (hPBMCs). TNF-α production by Lipopolysaccharide (LPS) in hPBMC was measured according to the method described by Jansky, L. et al (Physiol. Res. 52, 593-598, (2003)). Blood was collected from healthy donors into vacutainer tubes coated with potassium EDTA (Vacutest Plast) and diluted 1:2 with Dulbecco's Phosphate Buffered Saline (DPBS) (Sigma Aldrich, St. Louis, Mo.). The PBMC were harvested from human blood and suspended in RPMI 1640 culture medium (Gibco BRL, Pasley, UK) containing 10% fetal bovine serum (FBS) (Hyclone, Utah, USA), 100 U/ml penicillin (Sigma Chemical Co. St Louis, Mo.) and 100 μg/ml streptomycin (Sigma Chemical Co. St Louis, Mo.). The cell concentration was adjusted to 1×10^6 cells/ml. The cell suspension (100 μl) was added to the wells of a 96-well culture plate. Following cell plating, 79 μl of the culture medium and 1 μl of eight different concentrations of the test samples (10 to 100 μg/ml) dissolved in dimethylsulfoxide (DMSO, Sigma, Mo., USA) were added to the cells. The final concentration of DMSO was adjusted to 0.5-1%. Rolipram (100 μM) was used as a standard compound. The plates were incubated for 30 min at 37° C. in an atmosphere of 5% CO2. Finally, 20 μl (10 μg/ml) per well of LPS, (Escherchia coli 0127:B8, Sigma Chemical Co., St. Louis, Mo.) was added, to obtain a final concentration of 2 μg/ml. The plates were incubated at 37° C. for 5 h in an atmosphere of 5% CO2. Supernatants were harvested and assayed for % TNF-α inhibition by ELISA as described by the manufacturer (R&D Systems, MN) or by cytotoxicity bioassay in L929 cells.

[1] = system: Trichophyton mentagrophytes; test: In vitro anti-dermatophytic activity, agar dilution MIC; type: cell-based; conditions: T. mentagrophytes, Sabarouds agar, 28° C./48 h
Protocol: (§1) In vitro Assay Procedure.
(§2) Organisms: Trichophyton mentagrophytes & Microsporum gypseum.
(§3) Cultures were grown on PDA agar slants at 28° C. for 7 days. The growth was covered with sterile saline & scraped to get a growth suspension. The resulting mixture of conidia or sporangiospores & hypal fragments was transferred to a sterile test tube. The heavy particles were allowed to settle & upper homogenous suspension was transferred to another tube. These suspensions were adjusted to an optical density that ranged from 0.09 to 0.11 (80 to 82% transmittance) using a spectrophotometer. These stock suspensions were further diluted 1:10 with saline to obtain test inoculum (1×103 to 5×10^3 cfu/ml).
(§4) Ointment & Cream: A 100 mg/ml stock solution of ointment & cream of example 4 and 5 was prepared in demineralised water+0.01% Tween 20. Calculated amount of stock solution was added to 20 ml of Sabarouds melted agar medium & poured into petri plates so as to get a series of serial two fold dilution of the extract in the medium. Five concentrations of 100, 50, 25, 10 & 5 mg/ml were used for both formulations in initial study. A repeated study was carried out using lower concentrations of both the formulations. The concentrations used were 5, 1, 0.9, 0.8, 0.7, 0.6, 0.5, 0.4 0.3, 0.2 & 0.1 mg/ml.
(§5) Extract of Example 1 and Ethyl p-methoxycinnamate: […]

Microsporum gypseum = test: as above; type: cell-based; conditions: Nannizzia gypsea; M. gypseum; Sabarouds agar, 28° C./48 h
Protocol: as §1, §2, §3, §4, §5

Q: For `CCOC(=O)C=Cc1ccc(OC)cc1` [Ethyl p-methoxycinnamate], which “Anti-dermatophytic activity (reported)” value (dermatophytes) is on record?
A: Its value is “reported to be anti-dermatophytic”.

Q: What about the “Cytotoxicity in L929 cell lines” value (L929 cells; 10 μg/ml, 3.5 h) of the same compound?
A: Its value is 20.

Q: And the “Cytotoxicity in L929 cell lines” value (L929 cells; 10 μg/ml, 24 h)?
A: Its value is 27.

Q: What about the “Cytotoxicity in L929 cell lines” value (L929 cells; 100 μg/ml, 3.5 h) of the same compound?
A: Its value is 12.

Q: And the “Cytotoxicity in L929 cell lines” value (L929 cells; 100 μg/ml, 24 h)?
A: Its value is 02.

Q: And the “Cytotoxicity (conclusion in words)” value (L929 cells; as measured in L929 cell lines)?
A: Its value is “low cytotoxicity”.

Q: And the inhibition at 10 µg/mL (TNF-α; PBMC, sample concentration 10 μg/ml, LPS-stimulated human cells, 5 h)?
A: Its inhibition at 10 µg/mL is 0%.

Q: And the inhibition at 100 µg/mL (TNF-α; PBMC, sample concentration 100 μg/ml, LPS-stimulated human cells, 5 h)?
A: The inhibition at 100 µg/mL was 80%.

Q: What about the “TNF alpha activity inhibition (conclusion in words)” value (TNF-α; conclusion from table 1) of the same compound?
A: The value was “inhibit TNF alpha activity”.

Q: And the MIC [1]?
A: The MIC was 30 µg/mL (≈ 145 µM).

Q: What about the MIC (Microsporum gypseum) of the same compound?
A: Its MIC is 30 µg/mL (≈ 145 µM).
